Results on ten compounds are retold here after patent US20260022143A1, “Cyclic Peptide Inhibitors of IL-23” (JANSSEN PHARMACEUTICA NV, priority 2022, published 2026).

Positions of bridges follow the written chain, without caps; N, C: chain ends. Non-standard residues stand in square brackets, D forms with d. Residues, ends and D or L forms follow the SMILES beside them. *: point of attachment. Me3N+(CH2)2O(CH2)2O(CH2)2CO = C[N+](C)(C)CCOCCOCCC(=O)*; CH2CH2OCH2CH2OCH2CH2NMe3+ = C[N+](C)(C)CCOCCOCC*; NH(CH2CH2O)2CH2CH2NMe3+ = C[N+](C)(C)CCOCCOCCN*; Trp(7-Me) = Cc1cccc2c(C[C@H](N)C(=O)O)c[nH]c12; dLys(Me3) = C[N+](C)(C)CCCC[C@@H](N)C(=O)O; 2Nal = N[C@@H](Cc1ccc2ccccc2c1)C(=O)O; 3Pal = N[C@@H](Cc1cccnc1)C(=O)O; Lys(Me) = CNCCCC[C@H](N)C(=O)O; X53 = C[N+]1(CCOCCOCC*)CCOCC1; Pen = CC(C)(S)[C@H](N)C(=O)O; X86 = C[N+]1(C)CCCC(C*)C1; X88 = COCC[N+](C)(C)CCCC*; Thp = NC1(C(=O)O)CCOCC1; X92 = COCC[N+](C)(C)CC*; X3 = C[N+](C)(C)CCCCC*; X72 = C[N+](C)(C)CCCC*; X91 = c1cc[n+](CC*)cc1; Sar = CNCC(=O)O

This data set in a line: Exposed Polar Surface Area (EPSA). Type of data set: physicochemical. To be noted: SFC on Chirex 3014 column; sample 1 mM DMSO stock; read-out: EPSA. The procedure, abridged: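 EPSA, in Å^2, is read from SFC retention time through a linear relationship established with eight calibration standards. Separation uses a Chirex 3014 stationary phase, 35 °C, 14 MPa back pressure, and a 5–60% methanol/ammonium formate modifier gradient in CO2.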
Take `CC(=O)N(C)CCCC[C@@H]1NC(=O)[C@H](Cc2c[nH]c3c(C)cccc23)NC(=O)[C@H]([C@@H](C)O)NC(=O)[C@H](CC(=O)N(C)C)NC(=O)[C@@H](NC(=O)CCOCCOCC[N+](C)(C)C)C(C)(C)SSC(C)(C)[C@@H](C(=O)N[C@@H](Cc2ccc(OCC3CCC[N+](C)(C)C3)cc2)C(=O)N[C@@H](Cc2ccc3ccccc3c2)C(=O)NC2(C(=O)N[C@@H](CCCCN(C)C(C)=O)C(=O)N[C@@H](CC(N)=O)C(=O)N[C@@H](Cc3cccnc3)C(=O)N(C)CC(=O)N(C)C)CCOCC2)NC1=O` (stereo partly drawn) [compound 215, cPEG3aCO-Pen(3)-N(N(Me)2)-T-7MeW-K(NMeAc)-Pen(3)-DMMMF-2Nal-THP-K(NMeAc)-N-3Pya-Sar-CON(Me)2] ({Me3N+(CH2)2O(CH2)2O(CH2)2CO}-[Pen]D(NMe2)T[Trp(7-Me)][Lys(Me)](Ac)[Pen]Y(X86)[2Nal][Thp][Lys(Me)](Ac)N[3Pal][Sar]-NMe2; disulfide 1-6): the EPSA was 145 A^2.
In the case of `CC(=O)N[C@H](CCCC[N+](C)(C)C)C(=O)N[C@@H]1C(=O)N[C@@H](CC(=O)N(C)C)C(=O)N[C@@H]([C@@H](C)O)C(=O)N[C@@H](Cc2c[nH]c3c(C)cccc23)C(=O)N[C@@H](CCCCN(C)C(C)=O)C(=O)N[C@H](C(=O)N[C@@H](Cc2ccc(OCCOCCOCC[N+](C)(C)C)cc2)C(=O)N[C@@H](Cc2ccc3ccccc3c2)C(=O)NC2(C(=O)N[C@@H](CCCCN(C)C(C)=O)C(=O)N[C@@H](CC(N)=O)C(=O)N[C@@H](Cc3cccnc3)C(=O)N(C)CC(=O)N(C)C)CCOCC2)C(C)(C)SSC1(C)C` [compound 216, MeCO-k(Me)3-Pen(3)-N(N(Me)2)-T-7MeW-K(NMeAc)-Pen(3)-APEG3F-2Nal-THP-K(NMeAc)-N-3Pya-Sar-CON(Me)2] (Ac-[dLys(Me3)][Pen]D(NMe2)T[Trp(7-Me)][Lys(Me)](Ac)[Pen]Y(CH2CH2OCH2CH2OCH2CH2NMe3+)[2Nal][Thp][Lys(Me)](Ac)N[3Pal][Sar]-NMe2; disulfide 2-7) it was 141 A^2; in that of `CC(=O)N[C@@H]1C(=O)N[C@@H](CC(=O)N(C)C)C(=O)N[C@@H]([C@@H](C)O)C(=O)N[C@@H](Cc2c[nH]c3c(C)cccc23)C(=O)N[C@@H](CCCCN(C)C(=O)CCOCCOCC[N+](C)(C)C)C(=O)N[C@H](C(=O)N[C@@H](Cc2ccc(OCCOCCOCC[N+](C)(C)C)cc2)C(=O)N[C@@H](Cc2ccc3ccccc3c2)C(=O)NC2(C(=O)N[C@@H](CCCCN(C)C(C)=O)C(=O)N[C@@H](CC(N)=O)C(=O)N[C@@H](Cc3cccnc3)C(=O)N(C)CC(=O)N(C)C)CCOCC2)C(C)(C)SSC1(C)C` [compound 217, MeCO-Pen(3)-N(N(Me)2)-T-7MeW-K(NMePEG3a)-Pen(3)-APEG3F-2Nal-THP-K(NMeAc)-N-3Pya-Sar-CON(Me)2] (Ac-[Pen]D(NMe2)T[Trp(7-Me)][Lys(Me)](Me3N+(CH2)2O(CH2)2O(CH2)2CO)[Pen]Y(CH2CH2OCH2CH2OCH2CH2NMe3+)[2Nal][Thp][Lys(Me)](Ac)N[3Pal][Sar]-NMe2; disulfide 1-6), 138 A^2; in that of `CC(=O)N[C@@H]1C(=O)N[C@@H](CC(=O)N(C)C)C(=O)N[C@@H]([C@@H](C)O)C(=O)N[C@@H](Cc2c[nH]c3c(C)cccc23)C(=O)N[C@@H](CCCCN(C)C(C)=O)C(=O)N[C@H](C(=O)N[C@@H](Cc2ccc(OCCOCCOCC[N+](C)(C)C)cc2)C(=O)N[C@@H](Cc2ccc3ccccc3c2)C(=O)NC2(C(=O)N[C@@H](CCCCN(C)C(=O)CCOCCOCC[N+](C)(C)C)C(=O)N[C@@H](CC(N)=O)C(=O)N[C@@H](Cc3cccnc3)C(=O)N(C)CC(=O)N(C)C)CCOCC2)C(C)(C)SSC1(C)C` [compound 218, MeCO-Pen(3)-N(N(Me)2)-T-7MeW-K(NMeAc)-Pen(3)-APEG3F-2Nal-THP-K(NMePEG3a)-N-3Pya-Sar-CON(Me)2] (Ac-[Pen]D(NMe2)T[Trp(7-Me)][Lys(Me)](Ac)[Pen]Y(CH2CH2OCH2CH2OCH2CH2NMe3+)[2Nal][Thp][Lys(Me)](Me3N+(CH2)2O(CH2)2O(CH2)2CO)N[3Pal][Sar]-NMe2; disulfide 1-6), 136 A^2.
As for `CC(=O)N[C@@H]1C(=O)N[C@@H](CC(=O)N(C)C)C(=O)N[C@@H]([C@@H](C)O)C(=O)N[C@@H](Cc2c[nH]c3c(C)cccc23)C(=O)N[C@@H](CCCCN(C)C(C)=O)C(=O)N[C@H](C(=O)N[C@@H](Cc2ccc(OCCCCC[N+](C)(C)C)cc2)C(=O)N[C@@H](Cc2ccc3ccccc3c2)C(=O)NC2(C(=O)N[C@@H](CCCCN(C)C(C)=O)C(=O)N[C@@H](CC(N)=O)C(=O)N[C@@H](Cc3cccnc3)C(=O)N(C)CC(=O)NCCOCCOCC[N+](C)(C)C)CCOCC2)C(C)(C)SSC1(C)C` [compound 219, MeCO-Pen(3)-N(N(Me)2)-T-7MeW-K(NMeAc)-Pen(3)-TMAPF-2Nal-THP-K(NMeAc)-N-3Pya-Sar-CO(NHPEG3a)] (Ac-[Pen]D(NMe2)T[Trp(7-Me)][Lys(Me)](Ac)[Pen]Y(X3)[2Nal][Thp][Lys(Me)](Ac)N[3Pal][Sar]-{NH(CH2CH2O)2CH2CH2NMe3+}; disulfide 1-6 (inferred)), the figure is 139 A^2; as for `CC(=O)N(C)CCCC[C@@H]1NC(=O)[C@H](Cc2c[nH]c3c(C)cccc23)NC(=O)[C@H]([C@@H](C)O)NC(=O)[C@H](CC(=O)N(C)C)NC(=O)[C@@H](NC(=O)CCOCCOCC[N+](C)(C)C)C(C)(C)SSC(C)(C)[C@@H](C(=O)N[C@@H](Cc2ccc(OCCOCCOCC[N+]3(C)CCOCC3)cc2)C(=O)N[C@@H](Cc2ccc3ccccc3c2)C(=O)NC2(C(=O)N[C@@H](CCCCN(C)C(C)=O)C(=O)N[C@@H](CC(N)=O)C(=O)N[C@@H](Cc3cccnc3)C(=O)N(C)CC(=O)N(C)C)CCOCC2)NC1=O` [compound 223, cPEG3aCO-Pen(3)-N(N(Me)2)-T-7MeW-K(NMeAc)-Pen(3)-MMPEG3F-2Nal-THP-K(NMeAc)-N-3Pya-Sar-CON(Me)2] ({Me3N+(CH2)2O(CH2)2O(CH2)2CO}-[Pen]D(NMe2)T[Trp(7-Me)][Lys(Me)](Ac)[Pen]Y(X53)[2Nal][Thp][Lys(Me)](Ac)N[3Pal][Sar]-NMe2; disulfide 1-6), 141 A^2; as for `CC(=O)N(C)CCCC[C@@H]1NC(=O)[C@H](Cc2c[nH]c3c(C)cccc23)NC(=O)[C@H]([C@@H](C)O)NC(=O)[C@H](CC(=O)N(C)C)NC(=O)[C@@H](NC(=O)CCOCCOCC[N+](C)(C)C)C(C)(C)SSC(C)(C)[C@@H](C(=O)N[C@@H](Cc2ccc(OCCCC[N+](C)(C)C)cc2)C(=O)N[C@@H](Cc2ccc3ccccc3c2)C(=O)NC2(C(=O)N[C@@H](CCCCN(C)C(C)=O)C(=O)N[C@@H](CC(N)=O)C(=O)N[C@@H](Cc3cccnc3)C(=O)N(C)CC(=O)N(C)C)CCOCC2)NC1=O` [compound 226, cPEG3aCO-Pen(3)-N(N(Me)2)-T-7MeW-K(NMeAc)-Pen(3)-TMA4F-2Nal-THP-K(NMeAc)-N-3Pya-Sar-CON(Me)2] ({Me3N+(CH2)2O(CH2)2O(CH2)2CO}-[Pen]D(NMe2)T[Trp(7-Me)][Lys(Me)](Ac)[Pen]Y(X72)[2Nal][Thp][Lys(Me)](Ac)N[3Pal][Sar]-NMe2; disulfide 1-6), 142 A^2.
As to `COCC[N+](C)(C)CCCCOc1ccc(C[C@H](NC(=O)[C@H]2NC(=O)[C@H](CCCCN(C)C(C)=O)NC(=O)[C@H](Cc3c[nH]c4c(C)cccc34)NC(=O)[C@H]([C@@H](C)O)NC(=O)[C@H](CC(=O)N(C)C)NC(=O)[C@@H](NC(=O)CCOCCOCC[N+](C)(C)C)C(C)(C)SSC2(C)C)C(=O)N[C@@H](Cc2ccc3ccccc3c2)C(=O)NC2(C(=O)N[C@@H](CCCCN(C)C(C)=O)C(=O)N[C@@H](CC(N)=O)C(=O)N[C@@H](Cc3cccnc3)C(=O)N(C)CC(=O)N(C)C)CCOCC2)cc1` [compound 227, cPEG3aCO-Pen(3)-N(N(Me)2)-T-7MeW-K(NMeAc)-Pen(3)-mPEG2TMA4F-2Nal-THP-K(NMeAc)-N-3Pya-Sar-CON(Me)2] ({Me3N+(CH2)2O(CH2)2O(CH2)2CO}-[Pen]D(NMe2)T[Trp(7-Me)][Lys(Me)](Ac)[Pen]Y(X88)[2Nal][Thp][Lys(Me)](Ac)N[3Pal][Sar]-NMe2; disulfide 1-6), the EPSA is 139 A^2.
Consider `COCC[N+](C)(C)CCOc1ccc(C[C@H](NC(=O)[C@H]2NC(=O)[C@H](CCCCN(C)C(C)=O)NC(=O)[C@H](Cc3c[nH]c4c(C)cccc34)NC(=O)[C@H]([C@@H](C)O)NC(=O)[C@H](CC(=O)N(C)C)NC(=O)[C@@H](NC(=O)CCOCCOCC[N+](C)(C)C)C(C)(C)SSC2(C)C)C(=O)N[C@@H](Cc2ccc3ccccc3c2)C(=O)NC2(C(=O)N[C@@H](CCCCN(C)C(C)=O)C(=O)N[C@@H](CC(N)=O)C(=O)N[C@@H](Cc3cccnc3)C(=O)N(C)CC(=O)N(C)C)CCOCC2)cc1` [compound 228, cPEG3aCO-Pen(3)-N(N(Me)2)-T-7MeW-K(NMeAc)-Pen(3)-mPEG2TMA2F-2Nal-THP-K(NMeAc)-N-3Pya-Sar-CON(Me)2] ({Me3N+(CH2)2O(CH2)2O(CH2)2CO}-[Pen]D(NMe2)T[Trp(7-Me)][Lys(Me)](Ac)[Pen]Y(X92)[2Nal][Thp][Lys(Me)](Ac)N[3Pal][Sar]-NMe2; disulfide 1-6), for which the EPSA came to 139 A^2.
As for `CC(=O)N(C)CCCC[C@@H]1NC(=O)[C@H](Cc2c[nH]c3c(C)cccc23)NC(=O)[C@H]([C@@H](C)O)NC(=O)[C@H](CC(=O)N(C)C)NC(=O)[C@@H](NC(=O)CCOCCOCC[N+](C)(C)C)C(C)(C)SSC(C)(C)[C@@H](C(=O)N[C@@H](Cc2ccc(OCC[n+]3ccccc3)cc2)C(=O)N[C@@H](Cc2ccc3ccccc3c2)C(=O)NC2(C(=O)N[C@@H](CCCCN(C)C(C)=O)C(=O)N[C@@H](CC(N)=O)C(=O)N[C@@H](Cc3cccnc3)C(=O)N(C)CC(=O)N(C)C)CCOCC2)NC1=O` [compound 231, cPEG3aCO-Pen(3)-N(N(Me)2)-T-7MeW-K(NMeac)-Pen(3)-NPyEF-2Nal-THP-K(NMeAc)-N-3Pya-Sar-CON(Me)2] ({Me3N+(CH2)2O(CH2)2O(CH2)2CO}-[Pen]D(NMe2)T[Trp(7-Me)][Lys(Me)](Ac)[Pen]Y(X91)[2Nal][Thp][Lys(Me)](Ac)N[3Pal][Sar]-NMe2; disulfide 1-6), the EPSA was 147 A^2.
